Experimental data: patent publication US6143311A, “Iodopropargyl derivatives and antimicrobial agents comprising them as an active ingredient” (Nagase & Company, Ltd., priority 1997, dated 2000)
Values after ≈ are worked out from the molar mass of the structure shown.

Experiments:
Eschericia coli = test: MIC against bacteria, Eschericia coli (nutrient broth, turbidity); format: cell-based; conditions: 30° C., 24 hours; read-out: Antimicrobial activity (MIC), Bacteria B: Eschericia coli
Description: (§1) The minimum inhibitory concentration (hereinafter abbreviated as MIC) against four bacteria (Enterobacter aerogenes, Eschericia coli, Pseudomonas aeruginosa and Bacillus subtillis) and four fungi (Aspergillusniger, Penicillium funiculosum, Gliocladium virens and Trichoderma viride) was measured and used as an indicator of the antimicrobial activity.
(§2) The MIC against bacteria was measured as follows. The test bacteria were cultivated by inoculating a nutrient broth with them and keeping the mixture at 37° C. for 6 hours. On the other hand, the test media were prepared by adding solutions (0.2 ml) of an iodopropargyl derivative in dimethylformamide (DMF) at varying concentrations to the nutrient broth (10 ml). The above bacterial culture (0.1 ml) was added to the test media and the mixtures were cultivated at 30° C. for 24 hours. Then, the presence or absence of microorganism growth was assessed by observing the turbidity of media, by which the MIC was determined.

Enterobacter aerogenes = test: MIC against bacteria, Enterobacter aerogenes (nutrient broth, turbidity); format: cell-based; conditions: Klebsiella aerogenes; 30° C., 24 hours; read-out: Antimicrobial activity (MIC), Bacteria A: Enterobacter aerogenes
Description: as §1, §2

Bacillus subtillis = test: MIC against bacteria, Bacillus subtillis (nutrient broth, turbidity); format: cell-based; conditions: 30° C., 24 hours, read-out: Antimicrobial activity (MIC), Bacteria D: Bacillus subtillis
Description: as §1, §2

Pseudomonas aeruginosa = test: MIC against bacteria, Pseudomonas aeruginosa (nutrient broth, turbidity); format: cell-based; conditions: 30° C., 24 hours, read-out: Antimicrobial activity (MIC), Bacteria C: Pseudomonas aeruginosa
Description: as §1, §2

Penicillium funiculosum = test: MIC against fungi, Penicillium funiculosum (PDA medium); format: cell-based; conditions: Talaromyces funiculosus, 336 h; 28° C., 2 weeks; read-out: Antimicrobial activity (MIC), Fungi F: Penicillium funiculosum
Description: as §1
(§3) The MIC against fungi was measured as follows. The test fungal spores were suspended in sterilized water supplemented with a wetting agent. On the other hand, test media were prepared by adding solutions (0.3 ml) of an iodopropargyl derivative in dimethylformamide (DMF) at varying concentrations to a potato-dextrose-agar (PDA) medium (15 ml). The above spore suspensions (1 ml) were spread over the test media and the media were cultivated at 28° C. for 2 weeks. The presence or absence of fungal growth on the media was then observed to determine the MIC.

Trichoderma viride = test: MIC against fungi, Trichoderma viride (PDA medium); format: cell-based; conditions: 336 h, 28° C., 2 weeks, read-out: Antimicrobial activity (MIC), Fungi H: Trichoderma viride
Description: as §1, §3

Gliocladium virens = test: MIC against fungi, Gliocladium virens (PDA medium); format: cell-based; conditions: Trichoderma virens, 336 h; 28° C., 2 weeks; read-out: Antimicrobial activity (MIC), Fungi G: Gliocladium virens
Description: as §1, §3

mold = conditions: background art; cited from earlier work
Aspergillus niger = test: MIC against fungi, Aspergillus niger (PDA medium); format: cell-based; conditions: 336 h, 28° C., 2 weeks, read-out: Antimicrobial activity (MIC), Fungi E: Aspergillus niger
Description: as §1, §3

human body = conditions: background art; cited from earlier work
[1] = system: four bacteria and four fungi; test: Antimicrobial activity (MIC) against four bacteria and four fungi, overall; format: cell-based; conditions: from results of Table 1
Description: as §1, §2, §3

Compound: Clc1ccc(OCOCC#CI)cc1 [IF-1000, 1-Chloro-4-[[(3-iodo-2-propynyl)oxy]methoxy]benzene, reference compound]
- MIC (Eschericia coli): 100 to 200 mg/L (≈ 310 to 620 µM)
- MIC (Enterobacter aerogenes): > 1000 mg/L
- MIC (Bacillus subtillis): 10 to 20 mg/L (≈ 31 to 62 µM)
- MIC (Pseudomonas aeruginosa): > 1000 mg/L
- MIC (Penicillium funiculosum): 0.4 to 1 mg/L (≈ 1.24 to 3.1 µM)
- MIC (Trichoderma viride): 1 to 2 mg/L (≈ 3.1 to 6.2 µM)
- MIC (Gliocladium virens): 1 to 2 mg/L (≈ 3.1 to 6.2 µM)
- antimicrobial activity against mold (mold): particularly high antimicrobial activity against mold
- MIC (Aspergillus niger): 0.4 to 1 mg/L (≈ 1.24 to 3.1 µM)
- toxicity against the human body (human body): low toxicity against the human body

Compound: N#Cc1ccc(OCOCC#CI)cc1 [Derivative III-i, 1-Cyano-4-[[(3-iodo-2-propynyl)oxy]methoxy]benzene]
- MIC (Eschericia coli): > 1000 mg/L
- MIC (Enterobacter aerogenes): > 1000 mg/L
- MIC (Bacillus subtillis): 20 to 40 mg/L (≈ 63.9 to 128 µM)
- MIC (Pseudomonas aeruginosa): > 1000 mg/L
- MIC (Penicillium funiculosum): 0.4 to 1 mg/L (≈ 1.28 to 3.19 µM)
- MIC (Trichoderma viride): 0.4 to 1 mg/L (≈ 1.28 to 3.19 µM)
- MIC (Gliocladium virens): 0.4 to 1 mg/L (≈ 1.28 to 3.19 µM)
- antimicrobial activity compared with control 1-chloro-4-[[(3-iodo-2-propynyl)oxy]methoxy]benzene [1]: show an antimicrobial activity similar to that of 1-chloro-4-[[(3-iodo-2-propynyl)oxy]methoxy]benzene
- antimicrobial activity compared with the other derivatives [1]: superior to the others in the antimicrobial activity
- MIC (Aspergillus niger): 1 to 2 mg/L (≈ 3.19 to 6.39 µM)

Compound: COc1ccccc1OC(C)OCC#CI (stereo not drawn) [Derivative III-g, 1-[1-[(3-Iodo-2-propynyl)oxy]ethoxy]-2-methoxybenzene]
- MIC (Eschericia coli): > 1000 mg/L
- MIC (Enterobacter aerogenes): > 1000 mg/L
- MIC (Bacillus subtillis): 20 to 40 mg/L (≈ 60.2 to 120 µM)
- MIC (Pseudomonas aeruginosa): > 1000 mg/L
- MIC (Penicillium funiculosum): 2 to 4 mg/L (≈ 6.02 to 12 µM)
- MIC (Trichoderma viride): 2 to 4 mg/L (≈ 6.02 to 12 µM)
- MIC (Gliocladium virens): 4 to 10 mg/L (≈ 12 to 30.1 µM)
- MIC (Aspergillus niger): 1 to 2 mg/L (≈ 3.01 to 6.02 µM)

Compound: CCOc1ccccc1OC(C)OCC#CI (stereo not drawn) [Derivative III-h, 1-Ethoxy-2-[1-[(3-iodo-2-propynyl)oxy]ethoxy]benzene]
- MIC (Eschericia coli): > 1000 mg/L
- MIC (Enterobacter aerogenes): > 1000 mg/L
- MIC (Bacillus subtillis): 20 to 40 mg/L (≈ 57.8 to 116 µM)
- MIC (Pseudomonas aeruginosa): > 1000 mg/L
- MIC (Penicillium funiculosum): 2 to 4 mg/L (≈ 5.78 to 11.6 µM)
- MIC (Trichoderma viride): 2 to 4 mg/L (≈ 5.78 to 11.6 µM)
- MIC (Gliocladium virens): 4 to 10 mg/L (≈ 11.6 to 28.9 µM)
- MIC (Aspergillus niger): 2 to 4 mg/L (≈ 5.78 to 11.6 µM)

Compound: COc1ccc(OC(C)OCC#CI)cc1 (stereo not drawn) [Derivative III-e, 1-[1-[(3-Iodo-2-propynyl)oxy]ethoxy]-4-methoxybenzene]
- MIC (Eschericia coli): > 1000 mg/L
- MIC (Enterobacter aerogenes): > 1000 mg/L
- MIC (Bacillus subtillis): 20 to 40 mg/L (≈ 60.2 to 120 µM)
- MIC (Pseudomonas aeruginosa): > 1000 mg/L
- MIC (Penicillium funiculosum): 2 to 4 mg/L (≈ 6.02 to 12 µM)
- MIC (Trichoderma viride): 1 to 2 mg/L (≈ 3.01 to 6.02 µM)
- MIC (Gliocladium virens): 4 to 10 mg/L (≈ 12 to 30.1 µM)
- antimicrobial activity compared with the other derivatives [1]: superior to the others in the antimicrobial activity
- MIC (Aspergillus niger): 0.4 to 1 mg/L (≈ 1.2 to 3.01 µM)

Compound: CCOc1ccc(OCOCC#CI)cc1 [Derivative III-b, 1-Ethoxy-4-[[(3-iodo-2-propynyl)oxy]methoxy]benzene]
- MIC (Eschericia coli): > 1000 mg/L
- MIC (Enterobacter aerogenes): > 1000 mg/L
- MIC (Bacillus subtillis): 100 to 200 mg/L (≈ 301 to 602 µM)
- MIC (Pseudomonas aeruginosa): > 1000 mg/L
- MIC (Penicillium funiculosum): > 20 mg/L
- MIC (Trichoderma viride): 4 to 10 mg/L (≈ 12 to 30.1 µM)
- MIC (Gliocladium virens): > 20 mg/L
- MIC (Aspergillus niger): 4 to 10 mg/L (≈ 12 to 30.1 µM)

Compound: COc1ccccc1OCOCC#CI [Derivative III-c, 1-[[(3-Iodo-2-propynyl)oxy]methoxy]-2-methoxybenzene]
- MIC (Eschericia coli): > 1000 mg/L
- MIC (Enterobacter aerogenes): > 1000 mg/L
- MIC (Bacillus subtillis): 200 to 400 mg/L (≈ 629 to 1260 µM)
- MIC (Pseudomonas aeruginosa): > 1000 mg/L
- MIC (Penicillium funiculosum): > 20 mg/L
- MIC (Trichoderma viride): 10 to 20 mg/L (≈ 31.4 to 62.9 µM)
- MIC (Gliocladium virens): > 20 mg/L
- MIC (Aspergillus niger): 10 to 20 mg/L (≈ 31.4 to 62.9 µM)

Compound: CCOc1ccccc1OCOCC#CI [Derivative III-d, 1-Ethoxy-2-[[(3-iodo-2-propynyl)oxy]methoxy]benzene]
- MIC (Eschericia coli): > 1000 mg/L
- MIC (Enterobacter aerogenes): > 1000 mg/L
- MIC (Bacillus subtillis): 20 to 40 mg/L (≈ 60.2 to 120 µM)
- MIC (Pseudomonas aeruginosa): > 1000 mg/L
- MIC (Penicillium funiculosum): 4 to 10 mg/L (≈ 12 to 30.1 µM)
- MIC (Trichoderma viride): 1 to 2 mg/L (≈ 3.01 to 6.02 µM)
- MIC (Gliocladium virens): 4 to 10 mg/L (≈ 12 to 30.1 µM)
- MIC (Aspergillus niger): 1 to 2 mg/L (≈ 3.01 to 6.02 µM)

Compound: CCOc1ccc(OC(C)OCC#CI)cc1 (stereo not drawn) [Derivative III-f, 1-Ethoxy-4-[1-[(3-Iodo-2-propynyl)oxy]ethoxy]benzene]
- MIC (Eschericia coli): 400 to 1000 mg/L (≈ 1160 to 2890 µM)
- MIC (Enterobacter aerogenes): > 1000 mg/L
- MIC (Bacillus subtillis): 10 to 20 mg/L (≈ 28.9 to 57.8 µM)
- MIC (Pseudomonas aeruginosa): > 1000 mg/L
- MIC (Penicillium funiculosum): 4 to 10 mg/L (≈ 11.6 to 28.9 µM)
- MIC (Trichoderma viride): 1 to 2 mg/L (≈ 2.89 to 5.78 µM)
- MIC (Gliocladium virens): 4 to 10 mg/L (≈ 11.6 to 28.9 µM)
- MIC (Aspergillus niger): 1 to 2 mg/L (≈ 2.89 to 5.78 µM)

Compound: COc1ccc(OCOCC#CI)cc1 [Derivative III-a, 1-[[(3-Iodo-2-propynyl)oxy]methoxy]-4-methoxybenzene]
- MIC (Eschericia coli): > 1000 mg/L
- MIC (Enterobacter aerogenes): > 1000 mg/L
- MIC (Bacillus subtillis): 10 to 20 mg/L (≈ 31.4 to 62.9 µM)
- MIC (Pseudomonas aeruginosa): > 1000 mg/L
- MIC (Penicillium funiculosum): 2 to 4 mg/L (≈ 6.29 to 12.6 µM)
- MIC (Trichoderma viride): 0.4 to 1 mg/L (≈ 1.26 to 3.14 µM)
- MIC (Gliocladium virens): 2 to 4 mg/L (≈ 6.29 to 12.6 µM)
- antimicrobial activity compared with control 1-chloro-4-[[(3-iodo-2-propynyl)oxy]methoxy]benzene [1]: show an antimicrobial activity similar to that of 1-chloro-4-[[(3-iodo-2-propynyl)oxy]methoxy]benzene
- antimicrobial activity compared with the other derivatives [1]: superior to the others in the antimicrobial activity
- MIC (Aspergillus niger): 0.4 to 1 mg/L (≈ 1.26 to 3.14 µM)
